For experiment [1], the target named is T1, Electrophorus electricus AChE (EeAChE) (Electrophorus electricus, UniProt O42275).
T1 construct: purchased Sigma-Aldrich (Milan, Italy)
The experiment in a line: Percent inhibition of EeAChE, Ellman's spectrophotometric method. The class given is biochemical. Particulars: for inhibition at 90 µM: read-out: % inhibition vs EeAChE ± SD (90 uM), 90 uM; for inhibition at 900 µM: read-out: % inhibition vs EeAChE ± SD (900 uM), 900 uM; for inhibition at 0.9 µM: read-out: % inhibition vs EeAChE ± SD, [I] 900 nM. As for the experimental part: (§1) All other chemical and biological reagents and solvents used were of the highest analytical, commercially available grade. The water, utilized for the preparation of the phosphate buffer and of the compound solutions, was distilled and filtered on nylon membrane filters with a 0.2 μm pore size with the Millipore Filtration apparatus before each use. Micropipettes Labmate (BRAND Dig. 10–100 μL; Dig. 100–1000 μL; Dig. 0.1–2 μL) and Transferpette (HIGH TECH LAB LM200: 20–200 μL; LM5000: 1000–5000 μL) were used to collect the samples. The assays were carried out by a double beam UV–vis Lambda 40 Perkin Elmer spectrophotometer using optical polystyrene cuvettes (10 × 10 × 45 mm, 340–800 nm optical transparency); each measure was repeated at least in triplicate. […] The spectrophotometric method of Ellman[25] with minor modifications was used to evaluate the inhibition of ChEs. […] EeAChE and eqBChE were periodically tested to evaluate the effective enzymatic activity.
(§2) For all the synthesized compounds, the percentages of inhibition toward AChE of Electrophorus electricus (EeAChE) and equine BChE (eqBChE) were evaluated.
Three milliliters of a solution in 0.1 M phosphate buffer (pH = 7.4) containing DTNB (0.25 mM) and EeAChE (0.083 UmL^–1) or eqBChE (0.083 UmL^–1) was placed in a polystyrene cuvette of 1.0 cm path length; 1 μL of a […] With this solution, the blank was made. […] Each experiment was repeated at least in triplicate.
In general terms: DTNB colorimetry detects thiols as they appear.

The next experiment deals with T2, equine BChE (eqBChE) (Equus caballus, UniProt P81908).
T2 construct: purchased Sigma-Aldrich (Milan, Italy)
T2 sequence (P81908 whole entry): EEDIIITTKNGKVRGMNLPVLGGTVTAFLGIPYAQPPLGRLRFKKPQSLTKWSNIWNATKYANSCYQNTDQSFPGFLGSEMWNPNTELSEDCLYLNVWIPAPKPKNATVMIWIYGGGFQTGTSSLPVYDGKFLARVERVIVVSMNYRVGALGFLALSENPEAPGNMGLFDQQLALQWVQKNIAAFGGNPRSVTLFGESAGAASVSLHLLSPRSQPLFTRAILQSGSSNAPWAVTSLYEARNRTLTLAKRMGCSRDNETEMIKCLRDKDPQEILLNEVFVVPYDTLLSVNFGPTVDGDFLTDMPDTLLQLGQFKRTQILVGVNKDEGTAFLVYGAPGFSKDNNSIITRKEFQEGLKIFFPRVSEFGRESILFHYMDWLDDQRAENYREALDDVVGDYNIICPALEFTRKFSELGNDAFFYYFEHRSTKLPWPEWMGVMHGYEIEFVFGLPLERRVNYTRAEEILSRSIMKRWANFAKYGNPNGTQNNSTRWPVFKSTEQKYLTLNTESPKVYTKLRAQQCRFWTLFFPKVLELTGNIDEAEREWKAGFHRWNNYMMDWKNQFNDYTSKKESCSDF
The experiment in a line: Percent inhibition of eqBChE, Ellman's spectrophotometric method. The class given is biochemical. Particulars: for inhibition at 0.9 µM: [I] 900 nM; for % inhibition vs eqBChE ± SD (900 uM): 900 nM. As for the experimental part:
On the synthesized compounds, enzymatic inhibition studies were carried out toward Electrophorus electricus AChE (EeAChE) and equine BChE (eqBChE) according to Ellman’s spectrophotometric method.[25]
as §1, §2
Three milliliters of a solution in 0.1 M phosphate buffer (pH = 7.4) containing DTNB (0.25 mM) and EeAChE (0.083 UmL^–1) or eqBChE (0.083 UmL^–1) was placed in a polystyrene cuvette of 1.0 cm path length; 1 μL of a solution in DMSO of the tested compound was added to obtain a cuvette concentration range of 9–0.09 μM. With this solution, the blank was made. […] Each experiment was repeated at least in triplicate.

[2] abbreviates: read-out: % inhibition vs EeAChE ± SD (9 uM), 9 uM, supplement csv.
Where [3] appears, read: read-out: % inhibition vs EeAChE ± SD, [I] 9 μM, 0.0833 U/mL enzyme, 100 μM acetylthiocholine.
The mark [4] stands for this setting: [I] 9 μM, 0.0833 U/mL enzyme, 100 μM acetylthiocholine, read-out: % inhibition vs eqBChE ± SD.
The mark [5] stands for this setting: read-out: % inhibition vs eqBChE ± SD (9 uM), 9 uM, supplement csv.
[6] abbreviates: 0.0833 U/mL enzyme, 100 μM acetylthiocholine, read-out: % inhibition vs eqBChE ± SD.
The mark [7] stands for this setting: 0.0833 U/mL enzyme, 100 μM acetylthiocholine.

The structures appear in SMILES notation. Read-outs that look alike come from different tables or passages of the source.

T1 sequence (O42275 24-633): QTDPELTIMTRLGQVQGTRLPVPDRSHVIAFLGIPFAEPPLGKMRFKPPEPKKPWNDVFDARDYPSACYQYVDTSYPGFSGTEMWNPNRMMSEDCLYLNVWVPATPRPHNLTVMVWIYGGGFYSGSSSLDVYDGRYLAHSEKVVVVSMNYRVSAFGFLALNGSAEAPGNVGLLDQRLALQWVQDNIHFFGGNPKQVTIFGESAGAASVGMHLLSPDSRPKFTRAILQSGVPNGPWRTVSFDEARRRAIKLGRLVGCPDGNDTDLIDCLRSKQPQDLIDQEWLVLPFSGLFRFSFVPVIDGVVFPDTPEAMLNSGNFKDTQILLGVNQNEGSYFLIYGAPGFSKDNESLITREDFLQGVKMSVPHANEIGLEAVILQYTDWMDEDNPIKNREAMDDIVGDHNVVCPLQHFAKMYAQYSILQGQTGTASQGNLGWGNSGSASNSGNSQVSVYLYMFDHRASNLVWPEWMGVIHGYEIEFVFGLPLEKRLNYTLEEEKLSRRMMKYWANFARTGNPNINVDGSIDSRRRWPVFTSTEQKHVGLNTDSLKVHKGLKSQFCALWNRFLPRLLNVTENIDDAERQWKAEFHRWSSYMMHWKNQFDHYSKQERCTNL

`COc1cc(CNCCCCCCNc2ncccn2)cc(OC)c1OC` [Compound 17, N^1-(Pyrimidin-2-yl)-N^6-(3,4,5-trimethoxybenzyl)hexane-1,6-diamine]: the inhibition (as a rule, the drop in the measured response relative to a control, in per cent) at 9 µM is 16.4 ± 2.8% in experiment [1] (setting [2]), 16.4 ± 2.8% in experiment [1] (setting [3]), 29.4 ± 4.5% on equine BChE (eqBChE) (setting [4]) and 29.4 ± 4.5% at equine BChE (eqBChE) (setting [5]).

For the compound `Clc1cc(CNCCCCCNc2ncccn2)cc(Cl)n1` [Compound 12, N^1-((2,6-Dichloropyridin-4-yl)methyl)-N^5-(pyrimidin-2-yl)pentane-1,5-diamine], the inhibition at 9 µM in experiment [1] (setting [2]) is 16.5 ± 2%; in experiment [1] (setting [3]), 16.5 ± 2%; on equine BChE (eqBChE) (setting [4]), 8.5 ± 1.3%; at equine BChE (eqBChE) (setting [5]), 8.5 ± 1.3%.

Take `Clc1ccc(CNCCCCCCNc2ccccn2)cc1` [Compound 27, N^1-(4-Chlorobenzyl)-N^6-(pyridin-2-yl)hexane-1,6-diamine]: the inhibition at 9 µM in experiment [1] (setting [2]) was 27.7 ± 4.7%; in experiment [1] (setting [3]), 24 to 30%; on equine BChE (eqBChE) (setting [4]), 73.2 ± 3.6%; at equine BChE (eqBChE) (setting [5]), 17.7 ± 5.2%. Also, the inhibition at 90 µM in experiment [1] (supplement csv) came to 73.2 ± 3.6%. Also, the inhibition at 0.9 µM at equine BChE (eqBChE) (setting [6]) turned out to be 17.7 ± 5.2%.

For the compound `COc1ccccc1CNCCCCCCNc1ncccn1` [Compound 16, N^1-(2-Methoxybenzyl)-N^6-(pyrimidin-2-yl)hexane-1,6-diamine], the inhibition at 9 µM in experiment [1] (setting [2]) was 68.3 ± 0.7%; in experiment [1] (setting [3]), 60 to 70%; on equine BChE (eqBChE) (setting [4]) it was 43.9 ± 4.8%; at equine BChE (eqBChE) (setting [5]), 43.9 ± 4.8%. Moreover, the inhibition at 900 µM in experiment [1] (supplement csv) came out at 15.7 ± 1.1%. Besides, the inhibition at 0.9 µM in experiment [1] (setting [7]) worked out at 15.7 ± 1.1%; at equine BChE (eqBChE) (setting [6]), 6.2 ± 0.4%. The “% inhibition vs eqBChE ± SD (900 uM)” value on equine BChE (eqBChE) (supplement csv) is 6.2 ± 0.4%.

Take `Oc1cccc(CNCCCCCCNc2ccccn2)c1O` [Compound 32, 3-(((6-(Pyridin-2-ylamino)hexyl)amino)methyl)benzene-1,2-diol]: the inhibition at 9 µM in experiment [1] (setting [2]) was 63.9 ± 2.2%; in experiment [1] (setting [3]) it was approximately 60%; at equine BChE (eqBChE) (setting [4]) it was 59.8 ± 1.5%; at equine BChE (eqBChE) (setting [5]) it was 11.5 ± 2.9%. Besides, the inhibition at 90 µM in experiment [1] (supplement csv) worked out at 59.8 ± 1.5%. Besides, in experiment [1] (supplement csv), the inhibition at 900 µM worked out at 23.9 ± 1.5%. Also, the inhibition at 0.9 µM in experiment [1] (setting [7]) worked out at 23.9 ± 1.5%; on equine BChE (eqBChE) (setting [6]), 11.5 ± 2.9%.

In the case of `Brc1ccc(CNCCCCCCNc2ncccn2)cc1` [Compound 14, N^1-(4-Bromobenzyl)-N^6-(pyrimidin-2-yl)hexane-1,6-diamine], the inhibition at 9 µM was 23 ± 1.6% in experiment [1] (setting [2]), 23 ± 1.6% in experiment [1] (setting [3]), 38.6 ± 5.5% on equine BChE (eqBChE) (setting [4]) and 38.6 ± 5.5% on equine BChE (eqBChE) (setting [5]). At equine BChE (eqBChE) (supplement csv), the “% inhibition vs eqBChE ± SD (900 uM)” value is given as 6.6 ± 0.2%. In addition, on equine BChE (eqBChE) (setting [6]), the inhibition at 0.9 µM was 6.6 ± 0.2%.

For the compound `Clc1ccc(CNCCCCCCNc2ncccn2)cc1` [Compound 15, N^1-(4-Chlorobenzyl)-N^6-(pyrimidin-2-yl)hexane-1,6-diamine], the inhibition at 9 µM in experiment [1] (setting [2]) was determined as 29.9 ± 1.2%; in experiment [1] (setting [3]), 29.9 ± 1.2%; at equine BChE (eqBChE) (setting [4]) it was 21.5 ± 1.2%; on equine BChE (eqBChE) (setting [5]), 21.5 ± 1.2%.

As to `Clc1cc(CNCCCCCCNc2ccccn2)cc(Cl)n1` [Compound 33, N^1-((2,6-Dichloropyridin-4-yl)methyl)-N^6-(pyridin-2-yl)hexane-1,6-diamine], the inhibition at 9 µM was 40.6 ± 4.1% in experiment [1] (setting [2]), approximately 40% in experiment [1] (setting [3]), 68.3 ± 2.9% on equine BChE (eqBChE) (setting [4]) and 13 ± 0.7% at equine BChE (eqBChE) (setting [5]). Moreover, the inhibition at 90 µM in experiment [1] (supplement csv) turned out to be 68.3 ± 2.9%. The inhibition at 900 µM in experiment [1] (supplement csv) worked out at 6.2 ± 1.1%. The values for the inhibition at 0.9 µM (in experiment [1] (setting [7]); at equine BChE (eqBChE) (setting [6])) were 6.2 ± 1.1% and 13 ± 0.7%, respectively.

Regarding `Oc1cccc(CNCCCCCCNc2ccccn2)c1` [Compound 31, 3-(((6-(Pyridin-2-ylamino)hexyl)amino)methyl)phenol], the inhibition at 9 µM in experiment [1] (setting [2]) is 42.2 ± 2.2%; in experiment [1] (setting [3]), approximately 40%; at equine BChE (eqBChE) (setting [4]), 56 ± 3.8%; at equine BChE (eqBChE) (setting [5]), 19.1 ± 2.2%. The inhibition at 90 µM in experiment [1] (supplement csv) turned out to be 56 ± 3.8%. The inhibition at 0.9 µM on equine BChE (eqBChE) (setting [6]) turned out to be 19.1 ± 2.2%.

On to `Clc1cc(CNCCCCCCNc2ncccn2)cc(Cl)n1` [Compound 21, N^1-((2,6-Dichloropyridin-4-yl)methyl)-N^6-(pyrimidin-2-yl)hexane-1,6-diamine], for which the inhibition at 9 µM in experiment [1] (setting [2]) came out at 18.5 ± 1.8%; in experiment [1] (setting [3]), 18.5 ± 1.8%; at equine BChE (eqBChE) (setting [4]), 26.8 ± 0.4%; on equine BChE (eqBChE) (setting [5]), 26.8 ± 0.4%.

As to `COc1ccccc1CNCCCCCNc1ncccn1` [Compound 11, N^1-(2-Methoxybenzyl)-N^5-(pyrimidin-2-yl)pentane-1,5-diamine], the inhibition at 9 µM in experiment [1] (setting [2]) is 62.2 ± 0.9%; in experiment [1] (setting [3]), 60 to 70%; at equine BChE (eqBChE) (setting [4]), 22.1 ± 1.3%; on equine BChE (eqBChE) (setting [5]), 22.1 ± 1.3%. Also, the inhibition at 900 µM in experiment [1] (supplement csv) was found to be 14.6 ± 0.6%. The inhibition at 0.9 µM in experiment [1] (setting [7]) was 14.6 ± 0.6%.

Take `Brc1ccc(CNCCCCCNc2ccccn2)cc1` [Compound 24, N^1-(4-Bromobenzyl)-N^5-(pyridin-2-yl)pentane-1,5-diamine]: the inhibition at 9 µM in experiment [1] (setting [2]) stood at 18.2 ± 3.5%; in experiment [1] (setting [3]) it was 18.2 ± 3.5%; at equine BChE (eqBChE) (setting [4]), 56.4 ± 1.6%; on equine BChE (eqBChE) (setting [5]), 12.1 ± 4.6%. In addition, the inhibition at 90 µM in experiment [1] (supplement csv) amounted to 56.4 ± 1.6%. Besides, the inhibition at 0.9 µM on equine BChE (eqBChE) (setting [6]) was found to be 12.1 ± 4.6%.

In the case of `COc1cc(CNCCCCCCNc2ccccn2)cc(OC)c1OC` [Compound 29, N^1-(Pyridin-2-yl)-N^6-(3,4,5-trimethoxybenzyl)hexane-1,6-diamine], the inhibition at 9 µM was 30.9 ± 1.1% in experiment [1] (setting [2]), 24 to 30% in experiment [1] (setting [3]), 68.9 ± 4.1% at equine BChE (eqBChE) (setting [4]) and 19 ± 2.5% at equine BChE (eqBChE) (setting [5]). In addition, the inhibition at 90 µM in experiment [1] (supplement csv) was found to be 68.9 ± 4.1%. In addition, the inhibition at 0.9 µM on equine BChE (eqBChE) (setting [6]) amounted to 19 ± 2.5%.

As for `Brc1ccc(CNCCCCCNc2ncccn2)cc1` [Compound 10, N^1-(4-Bromobenzyl)-N^5-(pyrimidin-2-yl)pentane-1,5-diamine], the inhibition at 9 µM in experiment [1] (setting [2]) stood at 14.5 ± 0.7%; in experiment [1] (setting [3]), 14.5 ± 0.7%; at equine BChE (eqBChE) (setting [4]) it was 17.1 ± 0.9%; on equine BChE (eqBChE) (setting [5]), 17.1 ± 0.9%.

The values are drawn from PMC8569681, “New Pyrimidine and Pyridine Derivatives as Multitarget Cholinesterase Inhibitors: Design, Synthesis, and In Vitro and In Cellulo Evaluation” (ACS Chemical Neuroscience, 2021).
